Data: a melting point compilation (Tetko et al.; mined from patent text by program, amines drawn as free bases though some values may be those of a salt)

melting point [°C]	SMILES
170 to 173	c1cc(-n2ccnc2)nc(-n2cnc3cc(-c4ccoc4)ccc32)c1
70 to 74	NCCc1cccc(Cn2ccc(OCc3ccc(F)cc3F)c(Br)c2=O)c1
177 to 178	CC(C)Cc1nc2c(N)nc3ccccc3c2n1CCOc1ccccc1
115 to 117	CCCCCC(C)N(Cc1ccc(C(C)(C)C)cc1)C(Nc1ccc(OC)cc1OC)=C1C(=O)COC1=O (stereo unspecified)
122 to 127	COc1cccc(C(=NO)c2ccc(F)cc2F)c1
160	COc1cc(C=CC(=O)c2ccccc2N(C)C)cc(OC)c1
160 to 163	CC(=O)c1ccc2ccn(S(=O)(=O)c3ccccc3)c2c1
110 to 111	COC(=O)COc1ccc(Cc2ncc(C(F)(F)F)cc2Cl)c(Cl)c1Cl
156	CCN(CC)C(=O)C1CCCN(C(=O)CN(C(=O)CNC(=O)Nc2cccc(C)c2)c2ccccc2)C1 (racemic)
135 to 136	O=C(O)c1cccc(-c2cccc3cc(Cc4cccc(F)c4)oc23)c1
69 to 72	COc1ccc(CCc2ccc3ccc(C(=O)NCC(O)c4ccccc4)c(O)c3n2)cc1 (stereo unspecified)
90 to 94	Nc1nc(NCc2ccccc2)c2ncn(C3CC(F)C(CO)O3)c2n1 (stereo unspecified)
125 to 130	COc1cc(C(=O)NS(=O)(=O)c2ccccc2)ccc1Cc1cn(C)c2ccc(NC(=O)OC3CCCC3)cc12
204 to 205	CN1NN=C(c2ccc3c(c2)S(=O)(=O)c2ccccc2C3=O)N1
156 to 158	O=Cc1ccc(-c2cccc(-c3ccnc4c(C(=O)c5cccs5)cnn34)c2)cc1
220 to 221	CC(C)CNc1cc2nnnn2c2cnccc12
253 to 254	COC(=O)C(=O)Nc1cccc(C(=O)Nc2nnn[nH]2)c1
173 to 175	CC(C)(C)C(NC(=O)c1ccc(Cl)cc1)NC(=NC#N)NCc1ccc(Cl)cc1 (stereo unspecified)
78 to 79	COC(=O)Cc1cnc(-c2ccccc2)n1Cc1ccccc1
129	Nc1c(Br)cnn1-c1c(Cl)ccc(Cl)c1Cl
91 to 93	C#CCON=C(C(C)=NOCc1ccccc1C(=COC)C(=O)OC)c1ccc(F)cc1
57 to 59	COc1cc(Sc2ccccc2CCl)ccc1Cl
209 to 211	COc1cc(C(=O)C(=O)c2ccccc2)c(OC)cc1C(=O)C(=O)c1ccccc1

melting point [°C]	SMILES
188	Cc1cccc(-c2nc(N)sc2-c2ccc3ncccc3n2)n1
188 to 191	CC(C(=O)O)c1ccc2nc(-c3ccc(Cl)cc3)oc2c1 (stereo unspecified)
53 to 55	Cc1oc2c(OC(C)C#N)cccc2c1C (stereo unspecified)
228 to 229	Nc1nc(=O)n(-c2ccsc2)cc1F
163 to 164	CNC(=O)Cc1c(F)cccc1F
105 to 110	Cc1c(-c2ccc(O)cc2)n(Cc2ccc(OCCN3CCCC3)cc2)c2ccc(O)cc12
56 to 66	COC(=O)c1cc(-c2ccc(OC)c(F)c2)nn(CC2CCCC2)c1=O
160 to 162	CN(c1cc(OCCO)cc2cc(C3=NCC(CN4CCSCC4)S3)[nH]c12)S(=O)(=O)c1ccccn1 (stereo unspecified)
258 to 259	Nc1cccc2c(=O)[nH]ccc12
232	O=c1cc(-c2nc3ccccc3[nH]2)oc2ccccc12
111 to 114	CCc1cn(-c2ncccn2)c2c1C(=O)CC(C)(C)C2
76 to 78	CC(C)c1ccc(/C=C/C(=O)/C=C/c2ccccc2)cc1
98 to 99	CCNC(=O)n1nc(Oc2c(Cl)cc(C(F)(F)F)cc2[N+](=O)[O-])cc1C
170 to 172	CCCCC(=O)OC1(C(C)=O)C(C)CC2C3CCC4=CC(=O)C=CC4(C)C3(Cl)C(Cl)CC21C (stereo unspecified)
172	COCCOC(=O)C1=C(C)Nc2nc(N3CCOCC3)nc(N3CCOCC3)c2C1c1cccc([N+](=O)[O-])c1 (stereo unspecified)
244 to 247	Cn1c(=O)ccc2cnc(Nc3ccccc3)nc21
195 to 198	Fc1ccc(C2C=C(C(F)(F)F)NC3=C2SCC=C3)cc1Br (stereo unspecified)
120	Cc1ncc(CCC(=O)O)s1
75	COC[C@@H]1CCCN1S(=O)(=O)c1ccc(Cl)c(COc2cccc3c(-n4cccn4)cc(C)nc23)c1Cl
269 to 271	COC(=O)c1cc(O)c2c(ccc3sc4ccc(F)cc4c32)n1
95 to 96	Cc1cccc(C(=O)N(C)C)c1N
87 to 90	CS(=O)(=O)OCC1CCN(C(=O)c2ccccc2)CC1
78 to 80	CCCc1ccc(CCCOc2c(C)cc(-c3nnn(C)n3)cc2C)nn1

melting point [°C]	SMILES
50 to 55	CCOC(=O)c1cc2c(C(F)(F)F)coc2nc1C(=O)OCC
116 to 117	CC(C)C[C@H](NC(=O)COc1ccc(Cl)cc1)C(=O)N[C@@H](Cc1ccccc1)C(=O)CSCc1ccco1
203 to 205	O=C(O)c1cccc(Nc2ccc(-c3ccoc3)cc2[N+](=O)[O-])c1
109 to 111	CCOc1ccc(NC(=O)NCCCOc2cccc(CN3CCCCC3)c2)cc1
166 to 168	CCOC(=O)C(=O)Nc1ncc(C)s1
114 to 115	COC(OC)C(=O)CC(C)(C)C(Cc1c(C)c(Br)cn1S(=O)(=O)c1ccc(C)cc1)[N+](=O)[O-] (stereo unspecified)
64 to 65	O=C1COC(=O)C(Cc2ccccc2)O1 (stereo unspecified)
126 to 128	O=C(CN1CCC(Cc2ccccc2)CC1)Nc1ccc([N+](=O)[O-])cc1
114 to 115	FC(F)(F)c1cc(CO[C@@H]2CCCN(Cc3nnn[nH]3)[C@@H]2c2ccccc2)cc(C(F)(F)F)c1 (relative stereo)
205 to 207	O=C(Nc1ccc(C(=O)N2Cc3ccccc3Cc3ccccc32)cc1)c1ccc(C(F)(F)F)cc1
152 to 153	N#Cc1ccccc1-c1ccc(CBr)c(Br)c1
150	COc1ccc(Nc2ccnc(F)c2)cc1
250	Oc1ccc(C(NC(c2ccccc2)c2ccccc2)P(O)O)c(O)c1 (stereo unspecified)
185 to 186	CC(C)(C)CC(NC(=O)c1ccc(Br)cc1)NC(=NS(=O)(=O)C(F)(F)F)Nc1cccnc1 (stereo unspecified)
81 to 82	COC(=O)CCC(CCCCNS(=O)(=O)c1ccc(Cl)cc1)CCCc1cccnc1 (stereo unspecified)
223 to 224	CC(C)Nc1nc2c(Cl)c(Cl)c(Cl)cc2n1[C@H]1O[C@@H](CO)[C@H](O)[C@@H]1O
92 to 93	Cn1nc(N)nc1NCCSCc1cccc(CN2CCCCC2)c1
178 to 180	CCC1CCC(NC(=O)NS(=O)(=O)c2ccc(CCNC(=O)N3CCC(C)CC3=O)cc2)CC1 (stereo unspecified)
102 to 104	COC(OC)c1cnc(C)nc1N
168 to 170	O=C(NCc1ccn(-c2cc3nc(C(=O)O)c(=O)[nH]c3cc2C(F)(F)F)c1)Nc1ccc(F)cc1
198 to 199	COc1ccc(N=c2scc(-c3ccc(Cl)c(S(=O)(=O)N(C)C)c3)n2C)cc1
114	NC(=O)C1CNCCN1CCCC(c1ccc(F)cc1)c1ccc(F)cc1 (stereo unspecified)
115 to 117	COc1cc(Br)cc2c(N(C)C)cc(C)nc12

SMILES	melting point [°C]
N#Cc1nc(N2CCNCC2)nc(N2CCS(=O)CC2)c1Cl	206 to 208
CC(C)NC(=O)Nc1cc(-c2ccnc3c(C(=O)c4cccs4)cnn23)ccc1F	> 200
